# Experimental data reported in article PMC3269548 (Neuropharmacology, 2011).
# Where “and” joins values, the source holds several entries; their conditions need not be identical. Equal values may be shown once. Entries after “also recorded” stand apart in the source; their conditions may differ. Read-outs that look alike come from different tables or passages of the source.
# Assays:
# [1] = target: GluN1/GluN2A NMDA receptor (Rattus norvegicus, UniProt P35439+Q00959); assay type: cell-based; settings: for IC50: IC50 GluN1/GluN2A
# [2] = target: GluN1/GluN2B NMDA receptor (Rattus norvegicus, UniProt P35439+Q00960); assay type: cell-based; settings: 10 μM L-glutamate plus 10 μM glycine, ± s.e.m., n ≥ 4
# [3] = target: GluN1/GluN2C NMDA receptor (Rattus norvegicus, UniProt P35439+Q00961); assay type: cell-based; settings: 10 μM L-glutamate plus 10 μM glycine, ± s.e.m., n ≥ 4
# [4] = target: GluN1/GluN2D NMDA receptor (Rattus norvegicus, UniProt P35439+Q62645); assay type: cell-based; settings: for IC50: IC50 GluN1/GluN2D
# [5] = test system: GluN1/GluN2A-D NMDA receptors; assay type: cell-based
# [6] = test system: GluN1/GluN2A receptors with the NTD deleted on both the GluN1 and GluN2 subunits; experiment: Inhibition of NTD-deleted GluN1/GluN2A receptor responses in Xenopus oocytes; assay type: cell-based
# [7] = test system: GluN1/GluN2D receptors with the NTD deleted on both the GluN1 and GluN2 subunits; experiment: Inhibition of NTD-deleted GluN1/GluN2D receptor responses in Xenopus oocytes; assay type: cell-based
# AMPA receptors = experiment: Preliminary studies of antagonist activity at AMPA receptors
# [8] = 10 μM L-glutamate plus 10 μM glycine, ± s.e.m., n ≥ 4
# [9] = 10 μM L-glutamate plus 10 μM glycine, −60 mV, ± s.e.m., n ≥ 4
# Chain of GluN1/GluN2D NMDA receptor (Q62645 28-1323, other chains not shown): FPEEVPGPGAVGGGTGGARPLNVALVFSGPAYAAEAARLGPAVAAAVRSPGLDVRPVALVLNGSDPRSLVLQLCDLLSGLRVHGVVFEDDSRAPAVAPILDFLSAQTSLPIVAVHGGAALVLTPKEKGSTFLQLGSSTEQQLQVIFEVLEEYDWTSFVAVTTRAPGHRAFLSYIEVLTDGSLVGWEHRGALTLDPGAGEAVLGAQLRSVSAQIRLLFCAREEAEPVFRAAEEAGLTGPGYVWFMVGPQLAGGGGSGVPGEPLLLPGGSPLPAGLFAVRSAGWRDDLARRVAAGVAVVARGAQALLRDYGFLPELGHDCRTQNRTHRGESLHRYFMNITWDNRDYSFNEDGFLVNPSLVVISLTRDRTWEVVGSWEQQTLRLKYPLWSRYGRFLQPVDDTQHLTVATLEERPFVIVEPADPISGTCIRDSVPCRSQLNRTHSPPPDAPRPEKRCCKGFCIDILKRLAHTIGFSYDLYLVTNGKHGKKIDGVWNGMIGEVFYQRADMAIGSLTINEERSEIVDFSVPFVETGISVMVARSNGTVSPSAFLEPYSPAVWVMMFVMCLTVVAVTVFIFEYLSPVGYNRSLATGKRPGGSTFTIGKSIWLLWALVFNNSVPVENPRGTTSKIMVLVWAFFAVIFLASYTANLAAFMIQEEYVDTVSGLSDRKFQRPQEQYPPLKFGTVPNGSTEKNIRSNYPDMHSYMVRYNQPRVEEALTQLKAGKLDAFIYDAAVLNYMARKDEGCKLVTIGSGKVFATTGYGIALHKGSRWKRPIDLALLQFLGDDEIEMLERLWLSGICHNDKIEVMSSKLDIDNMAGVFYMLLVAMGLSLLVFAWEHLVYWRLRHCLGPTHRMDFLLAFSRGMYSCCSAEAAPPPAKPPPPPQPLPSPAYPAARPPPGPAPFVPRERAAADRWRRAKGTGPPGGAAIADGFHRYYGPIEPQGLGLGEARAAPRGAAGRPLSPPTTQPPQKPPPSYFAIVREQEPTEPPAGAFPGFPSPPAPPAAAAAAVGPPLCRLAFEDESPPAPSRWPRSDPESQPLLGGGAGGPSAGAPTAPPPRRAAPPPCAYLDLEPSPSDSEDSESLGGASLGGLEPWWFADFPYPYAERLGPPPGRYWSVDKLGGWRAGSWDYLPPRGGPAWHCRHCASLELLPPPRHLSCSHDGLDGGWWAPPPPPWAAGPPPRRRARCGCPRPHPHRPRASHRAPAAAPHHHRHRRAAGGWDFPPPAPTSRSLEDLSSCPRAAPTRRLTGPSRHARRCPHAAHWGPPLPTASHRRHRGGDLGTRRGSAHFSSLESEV
# Chain of GluN1/GluN2C NMDA receptor (Q00961 20-1237, other chains not shown): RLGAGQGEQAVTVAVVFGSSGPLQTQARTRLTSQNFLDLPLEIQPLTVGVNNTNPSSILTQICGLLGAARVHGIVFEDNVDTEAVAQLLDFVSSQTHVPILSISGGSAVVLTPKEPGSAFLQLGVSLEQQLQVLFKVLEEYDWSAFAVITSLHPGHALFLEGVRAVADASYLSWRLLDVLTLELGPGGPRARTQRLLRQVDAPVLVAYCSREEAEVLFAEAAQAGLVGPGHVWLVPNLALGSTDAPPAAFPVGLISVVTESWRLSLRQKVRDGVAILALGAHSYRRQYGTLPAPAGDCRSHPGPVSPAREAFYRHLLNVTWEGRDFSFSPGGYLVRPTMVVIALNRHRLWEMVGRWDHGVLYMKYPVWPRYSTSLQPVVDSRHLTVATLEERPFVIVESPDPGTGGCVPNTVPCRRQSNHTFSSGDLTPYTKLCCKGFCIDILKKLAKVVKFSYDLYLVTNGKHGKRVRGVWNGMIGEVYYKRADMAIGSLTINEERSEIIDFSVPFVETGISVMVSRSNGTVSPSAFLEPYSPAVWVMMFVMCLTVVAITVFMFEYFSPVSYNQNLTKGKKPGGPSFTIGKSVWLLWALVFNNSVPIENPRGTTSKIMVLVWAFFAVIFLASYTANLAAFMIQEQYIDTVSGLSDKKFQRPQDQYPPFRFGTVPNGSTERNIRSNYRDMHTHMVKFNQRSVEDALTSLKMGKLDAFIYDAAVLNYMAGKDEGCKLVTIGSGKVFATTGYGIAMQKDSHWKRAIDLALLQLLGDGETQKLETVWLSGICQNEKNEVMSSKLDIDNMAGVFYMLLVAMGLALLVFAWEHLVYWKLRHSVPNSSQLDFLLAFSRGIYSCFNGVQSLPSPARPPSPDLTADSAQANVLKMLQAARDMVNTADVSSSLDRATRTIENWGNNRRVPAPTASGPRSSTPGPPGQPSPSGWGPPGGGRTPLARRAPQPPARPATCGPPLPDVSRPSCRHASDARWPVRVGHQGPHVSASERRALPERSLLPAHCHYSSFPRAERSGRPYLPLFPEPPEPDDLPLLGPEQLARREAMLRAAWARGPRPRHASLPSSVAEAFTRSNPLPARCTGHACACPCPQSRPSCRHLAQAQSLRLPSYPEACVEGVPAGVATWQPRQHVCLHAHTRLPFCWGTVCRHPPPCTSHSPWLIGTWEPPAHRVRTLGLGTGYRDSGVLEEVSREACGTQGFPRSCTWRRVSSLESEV
# Chain of GluN1/GluN2A NMDA receptor (Q00959 23-1464, other chains not shown): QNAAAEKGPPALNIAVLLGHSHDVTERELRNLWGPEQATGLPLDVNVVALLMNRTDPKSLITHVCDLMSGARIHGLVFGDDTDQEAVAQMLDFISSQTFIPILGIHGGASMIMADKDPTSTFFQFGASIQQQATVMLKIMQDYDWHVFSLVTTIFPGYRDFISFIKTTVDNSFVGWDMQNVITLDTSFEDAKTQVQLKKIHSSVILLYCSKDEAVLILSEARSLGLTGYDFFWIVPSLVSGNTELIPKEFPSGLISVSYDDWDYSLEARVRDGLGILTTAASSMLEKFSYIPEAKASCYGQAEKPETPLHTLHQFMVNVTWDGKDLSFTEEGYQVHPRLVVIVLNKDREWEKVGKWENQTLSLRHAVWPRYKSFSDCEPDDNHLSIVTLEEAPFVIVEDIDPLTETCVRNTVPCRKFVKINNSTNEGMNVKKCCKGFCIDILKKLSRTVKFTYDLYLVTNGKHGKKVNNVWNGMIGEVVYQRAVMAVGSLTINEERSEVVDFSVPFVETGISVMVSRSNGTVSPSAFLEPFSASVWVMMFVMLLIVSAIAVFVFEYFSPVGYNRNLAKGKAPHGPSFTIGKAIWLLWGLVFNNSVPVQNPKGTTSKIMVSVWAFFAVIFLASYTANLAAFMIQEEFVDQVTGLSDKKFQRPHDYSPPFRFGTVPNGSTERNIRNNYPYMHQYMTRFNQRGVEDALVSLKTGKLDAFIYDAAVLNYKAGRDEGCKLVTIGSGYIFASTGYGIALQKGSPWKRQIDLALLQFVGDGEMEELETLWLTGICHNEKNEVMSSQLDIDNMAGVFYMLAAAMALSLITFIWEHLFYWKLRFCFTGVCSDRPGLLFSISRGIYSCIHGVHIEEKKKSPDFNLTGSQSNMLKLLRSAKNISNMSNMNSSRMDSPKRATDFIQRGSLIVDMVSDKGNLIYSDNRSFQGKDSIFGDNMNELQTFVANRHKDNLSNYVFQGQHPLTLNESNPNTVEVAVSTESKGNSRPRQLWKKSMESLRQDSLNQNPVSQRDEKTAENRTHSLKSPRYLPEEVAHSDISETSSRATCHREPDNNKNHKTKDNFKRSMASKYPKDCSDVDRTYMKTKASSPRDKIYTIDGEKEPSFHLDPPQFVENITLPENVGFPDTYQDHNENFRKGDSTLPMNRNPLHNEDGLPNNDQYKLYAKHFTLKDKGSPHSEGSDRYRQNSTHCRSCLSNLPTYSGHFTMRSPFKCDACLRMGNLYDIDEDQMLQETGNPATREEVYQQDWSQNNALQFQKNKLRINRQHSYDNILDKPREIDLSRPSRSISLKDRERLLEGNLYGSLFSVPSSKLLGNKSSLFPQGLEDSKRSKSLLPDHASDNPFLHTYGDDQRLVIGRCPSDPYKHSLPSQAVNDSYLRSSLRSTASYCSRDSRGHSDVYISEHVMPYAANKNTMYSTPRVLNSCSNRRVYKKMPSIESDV
smiles,measurement,setting,value
"O=C(O)c1cc(Br)c2ccc(Br)cc2c1 [UBP628, 1,6-Dibromo-3-naphthoic acid]",% Max. Inh. GluN1/GluN2A,[1]; [8],104.3 ± 4.3%
same,fold lower potency than UBP552 at GluN1/GluN2A,"[1]; from IC50 values, Table 1",3 fold
same,% Max. Inh. GluN1/GluN2B,[2],84.4 ± 12.5%
same,% Max. Inh. GluN1/GluN2C,[3],103.0 ± 7.1%
same,% Max. Inh. GluN1/GluN2D,[4]; [8],112.4 ± 21.3%
same,fold lower potency than UBP552 for GluN1/GluN2D,"[4]; from IC50 values, Table 1",33 fold
"Oc1ccc2cc(Br)ccc2c1Br [UBP644, 1,6-dibromo-2-naphthol]",Inhibitory activity at NMDA receptors (Figure 2),"[5]; compound at 100 μM, GluN1/GluN2A-D, 10 μM L-glutamate plus 10 μM glycine",virtually inactive; also recorded: eliminated activity
"O=C(O)c1cc2cc(Br)ccc2c(Br)c1O [UBP552, 1,6-Dibromo-2-hydroxy-3-naphthoic acid]",% Max. Inh. GluN1/GluN2A,[1]; [8],105.6 ± 4.3%
same,IC50,[1]; [9],6.29 ± 0.88 µM
same,IC50,"[1]; [Gly] 10 μM, [L-Glu] 2.0 μM",5.05 ± 0.73 µM
same,IC50,"[1]; [Gly] 10 μM, [L-Glu] 300 μM",8.58 ± 0.84 µM
same,IC50,"[1]; [Gly] 300 μM, [L-Glu] 10 μM",10 ± 1.93 µM
same,IC50,"[1]; [Gly] 300 μM, [L-Glu] 300 μM",15.5 ± 1.73 µM
same,% Max. Inh. GluN1/GluN2B,[2],108.3 ± 2.0%
same,% Max. Inh. GluN1/GluN2D,[4]; [8],103.6 ± 2.2%
same,effect on oocytes expressing GluN1/GluN2D receptors without agonists,[4]; 100 μM compound in the absence of L-glutamate and glycine,no detectable effect
same,IC50,[4]; [9],3.35 ± 0.18 µM
same,IC50,"[4]; [Gly] 10 μM, [L-Glu] 0.3 μM",6.26 ± 0.58 µM
same,IC50,"[4]; [Gly] 10 μM, [L-Glu] 300 μM",3.35 ± 0.82 µM
same,IC50,"[4]; [Gly] 300 μM, [L-Glu] 10 μM",3.73 ± 0.75 µM
same,IC50,"[4]; [Gly] 300 μM, [L-Glu] 300 μM",4.85 ± 0.27 µM
same,decrease of IC50 values,"[4]; increasing L-glutamate from 0.3 μM to 10 μM or to 300 μM, p < 0.05",46%
same,ability to fully inhibit receptor responses,[5]; all GluN1/GluN2A-D receptors,able to fully inhibit all receptor responses
same,inhibition of receptor responses in the absence of the NTD,[6]; NTD deleted on GluN1 and GluN2A (Figure 4C),still able to inhibit
same,effect of NTD deletion on inhibitory potency,[6]; compared with wild-type GluN1/GluN2A,increased the potency
same,inhibition of receptor responses in the absence of the NTD,[7]; NTD deleted on GluN1 and GluN2D (Figure 4C),still able to inhibit
same,effect of NTD deletion on inhibitory potency,[7]; compared with wild-type GluN1/GluN2D,decreased the inhibitory potency
same,antagonist activity at AMPA receptors,AMPA receptors,has antagonist activity
"O=C(O)c1cc2cc(-c3ccccc3)ccc2c(I)c1O [UBP619, 2-hydroxy-1-iodo-6-phenyl-3-naphthoic acid]",% Max. Inh. GluN1/GluN2A,[1]; [8],78.8 ± 2.5^CHI %
same,% Max. Inh. GluN1/GluN2B,[2],82.1 ± 3.1%
same,% Max. Inh. GluN1/GluN2C,[3],77.3 ± 5.0^EHI %
same,% Max. Inh. GluN1/GluN2D,[4]; [8],97.0 ± 2.2%
"O=C(O)c1cc2cc(-c3ccccc3)ccc2cc1O [UBP617, 2-hydroxy-6-phenyl-3-naphthoic acid]",% Max. Inh. GluN1/GluN2A,[1]; [8],71.5 ± 6.4C^c-iHI %
same,% Max. Inh. GluN1/GluN2B,[2],56.8 ± 5.2^c-ic-ic-ic-iI %
"O=C(O)c1cc2cc(Br)ccc2c(I)c1O [UBP620, 6-bromo-2-hydroxy-1-iodo-3-naphthoic acid]",% Max. Inh. GluN1/GluN2A,[1]; [8],90% and 90.5 ± 7.4%
same,% Max. Inh. GluN1/GluN2B,[2],90% and 90.6 ± 10.7%
same,% Max. Inh. GluN1/GluN2C,[3],96.1 ± 2.3%
same,% Max. Inh. GluN1/GluN2D,[4]; [8],107.1 ± 4.3%
